Laboratory results taken from US20210238170A1, “5,5-Difluoro- and 5-Fluoro-5-Methyl-C-Glycoside Derivatives Useful As Dual SGLT1 / SGLT2 Modulators” (Janssen Pharmaceutica NV, priority 2018, published 2021).
pIC50: −log10 of the molar value.

Assays:
[1] = target: T1, human SGLT1 (Homo sapiens, UniProt P13866); assay: SGLT1 in vitro assay: Na-dependent 14C-AMG uptake in CHO-K1 cells stably expressing human SGLT1; assay type: cell-based; details: for inhibition at 0.3 µM: read-out: SGLT1 % Inh @ 0.3 μM; for pIC50: compounds of formula (I) where R0 is fluoro
T1 construct: expressed in transfected cells
T1 sequence (P13866 1-664): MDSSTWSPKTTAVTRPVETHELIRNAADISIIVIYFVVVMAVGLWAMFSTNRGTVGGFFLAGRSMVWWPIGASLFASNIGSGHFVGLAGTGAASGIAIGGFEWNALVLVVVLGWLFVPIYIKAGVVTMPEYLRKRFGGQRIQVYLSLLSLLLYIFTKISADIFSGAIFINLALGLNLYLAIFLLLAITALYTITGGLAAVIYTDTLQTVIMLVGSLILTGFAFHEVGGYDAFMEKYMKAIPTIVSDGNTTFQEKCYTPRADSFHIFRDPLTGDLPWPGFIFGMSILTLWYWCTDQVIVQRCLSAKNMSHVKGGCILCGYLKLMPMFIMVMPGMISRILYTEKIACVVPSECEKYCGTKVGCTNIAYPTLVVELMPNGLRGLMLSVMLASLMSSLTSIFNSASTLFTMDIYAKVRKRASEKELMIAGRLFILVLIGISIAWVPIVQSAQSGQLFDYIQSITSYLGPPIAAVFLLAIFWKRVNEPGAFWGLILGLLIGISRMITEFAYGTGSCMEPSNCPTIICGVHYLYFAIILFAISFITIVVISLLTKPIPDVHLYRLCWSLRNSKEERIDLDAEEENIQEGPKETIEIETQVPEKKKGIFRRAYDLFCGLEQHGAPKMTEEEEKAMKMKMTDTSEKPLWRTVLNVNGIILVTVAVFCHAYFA
Procedure: (§1) Biological Example 1: SGLT1 and SGLT2 In Vitro Assays
(§2) The ability of the compounds of formula (I) of the present invention to treat an SGLT-mediated condition was determined using the following procedures:
(§3) SGLT1 and SGLT2 were cloned in form of cDNA from human small intestine (Genbank M24847), and from human kidney (Genbank M95549), respectively. Subsequently, each full cDNA was subcloned into pcDNA with each construct's integrity verified through follow-on sequencing. To generate CHO-K1 cells that stably express human SGLT1 or human SGLT2, CHO-K1 cells were transfected using DMRIE-C reagent (Life Technologies, Gaithersburg, Md.). Transfected cells were then selected in the presence of 500 μg/ml of the Geneticin (G418 Cellgro Catalog No. 30234-CI)
(§4) Individual clones were then characterized using the following cell-based assay for sodium-dependent glucose transport:
(§5) Inhibition of SGLT1 and SGLT2 activity was assessed in CHO K1 cells stably expressing either human SGLT1 or SGLT2, using the SGLT specific glucose analog methyl-glucopyranoside (Sigma Catalog No. M-9376). Cells were plated (45,000 cells/well) in white wall 96-well plates (COSTAR, Cat #3903) for 24 hours in growth medium, then a final concentration of 10 mM Na-Butyrate (ALDRICH Cat #30341-0) was added. The cells were incubated for 24 hours. On the day of the assay, cells were rinsed and treated with test compounds (at concentrations of 0.001 μM to 10 μM) in assay buffer (50 mM HEPES, 20 mM Tris base, 5 mM KCl, 1 mM MgCl2, 1 mM CaCl2 and 137 mM NaCl, pH 7.4) for 10 minutes. Cells were then incubated with ^14C-a-methyl-d-glucopyranoside (AMG, Amersham Catalog No. CFB 76), using 0.07 μCi per well in 500 µM AMG final concentration. The cells were incubated for 2 hours at 37° C. with 5% CO2 and washed two times with ice-cold Phosphate Buffer Solution (CELLGRO Catalog No. 21030-CV). The cells were then solubilized by adding 60 μl of MICROSCINT™ 20 and the Na-dependent ^14C-AMG uptake was quantified by measuring radioactivity. Plates were counted in a TopCount (Packard, Meriden, Conn.)
(§6) Representative compounds of the present invention were tested according to the procedures as described in Biological Example 1 and 2 above, with results as listed in Table 5, below. Results are reported as the %-inhibition or IC50 value. Variability for the functional assay was typically within 20%.

[2] = target: T2, human SGLT2 (Homo sapiens, UniProt P31639); assay: SGLT2 in vitro assay: Na-dependent 14C-AMG uptake in CHO-K1 cells stably expressing human SGLT2; assay type: cell-based; details: for inhibition at 0.3 µM: read-out: SGLT2 % Inh @ 0.3 μM; for pIC50: compounds of formula (I) where R0 is fluoro
T2 construct: expressed in transfected cells
T2 sequence (P31639 1-672): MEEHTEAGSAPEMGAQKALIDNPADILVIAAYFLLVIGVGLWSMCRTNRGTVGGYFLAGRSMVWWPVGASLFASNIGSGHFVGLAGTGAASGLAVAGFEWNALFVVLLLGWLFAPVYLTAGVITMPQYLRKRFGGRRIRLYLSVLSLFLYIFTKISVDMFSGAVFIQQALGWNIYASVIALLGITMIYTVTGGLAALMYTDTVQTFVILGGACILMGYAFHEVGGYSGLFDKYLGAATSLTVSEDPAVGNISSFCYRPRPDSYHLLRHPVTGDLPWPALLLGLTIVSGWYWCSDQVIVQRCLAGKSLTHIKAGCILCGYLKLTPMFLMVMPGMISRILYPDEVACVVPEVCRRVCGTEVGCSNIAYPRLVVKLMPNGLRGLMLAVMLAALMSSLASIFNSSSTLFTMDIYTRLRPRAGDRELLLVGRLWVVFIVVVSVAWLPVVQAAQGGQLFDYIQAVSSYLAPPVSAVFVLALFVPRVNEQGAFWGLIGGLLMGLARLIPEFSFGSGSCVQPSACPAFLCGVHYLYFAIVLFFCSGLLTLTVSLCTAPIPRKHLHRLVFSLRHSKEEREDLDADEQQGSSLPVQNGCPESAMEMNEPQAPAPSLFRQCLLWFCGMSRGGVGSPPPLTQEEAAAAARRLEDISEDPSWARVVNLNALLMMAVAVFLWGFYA
Procedure: as §1, §2, §3, §4, §5, §6

[3] = @ 0.3 μM, CHO-K1 cells stably expressing human SGLT1, 14C-AMG uptake
[4] = CHO-K1 cells stably expressing human SGLT1, 14C-AMG uptake
[5] = @ 0.3 μM, CHO-K1 cells stably expressing human SGLT2, 14C-AMG uptake
[6] = CHO-K1 cells stably expressing human SGLT2, 14C-AMG uptake

SMILES	inhibition at 0.3 µM [1, 3]	pIC50 [1, 4]	inhibition at 0.3 µM [2, 5]	pIC50 [2, 6]	SGLT1 % Inh @ 0.3 μM [1, 3]	SGLT2 % Inh @ 0.3 μM [2, 5]	SGLT1 % Inh @ 0.3 μM ([1]; 0.3 μM, CHO-K1 cells expressing human SGLT1)	SGLT2 % Inh @ 0.3 μM ([2]; 0.3 μM, CHO-K1 cells expressing human SGLT2)
COc1cc(C)c(Cc2cc3cc(F)ccc3s2)cc1[C@@H]1O[C@H](CO)C(F)(F)[C@H](O)[C@H]1O [Compound 53]					0.0%	87.1%		
COc1cc(OC)c(C2OC(CO)C(C)(F)C(O)C2O)cc1Cc1ccc2c(c1)CCCO2 (stereo not shown) [Compound 4]							0.9%	73.4%
COc1cc(Cl)c(Cc2ccc(C)s2)cc1[C@@H]1O[C@H](CO)C(F)(F)[C@H](O)[C@H]1O [Compound 165]	54.7%	7.40	73.2%	9.15				
OC[C@H]1O[C@@H](c2cc(Cc3ccc4c(c3)CCCO4)c(Cl)c3c2OCC3)[C@H](O)[C@@H](O)C1(F)F [Compound 126]					28.7%	87.1%		
COc1cc(Cl)c(Cc2ccc3c(c2)OCC3)cc1[C@@H]1O[C@H](CO)C(F)(F)[C@H](O)[C@H]1O [Compound 115]	50.8%	6.49	86.8%	9.30				
Cc1ccc([C@@H]2O[C@H](CO)C(F)(F)[C@H](O)[C@H]2O)cc1Cc1cc2c(s1)CCN(C(=O)c1nccs1)C2 [Compound 79]					20.3%	63.6%		
OC[C@H]1O[C@@H](c2cc(Cc3ccc4c(c3)SCCO4)c(Cl)c3c2OCC3)[C@H](O)[C@@H](O)C1(F)F [Compound 132]	40.7%	6.37	83.9%	8.35				
Cc1c(Cc2ccc3c(c2)CCCO3)cc([C@@H]2O[C@H](CO)C(F)(F)[C@H](O)[C@H]2O)c2c1CCO2 [Compound 103]					26.3%	94.7%		
COc1cc(Cl)c(Cc2ccc(Cl)s2)cc1[C@@H]1O[C@H](CO)C(F)(F)[C@H](O)[C@H]1O [Compound 172]					40.4%	79.9%		
COC(=O)N1CCc2sc(Cc3cc([C@@H]4O[C@H](CO)C(F)(F)[C@H](O)[C@H]4O)c(OC)cc3OC)cc2C1 [Compound 75]					15.5%	52.3%		

Other lines, results leading:

inhibition at 0.3 µM [1, 3]	pIC50 [1, 4]	inhibition at 0.3 µM [2, 5]	pIC50 [2, 6]	SGLT1 % Inh @ 0.3 μM [1, 3]	SGLT2 % Inh @ 0.3 μM [2, 5]	SGLT1 % Inh @ 0.3 μM ([1]; 0.3 μM, CHO-K1 cells expressing human SGLT1)	SGLT2 % Inh @ 0.3 μM ([2]; 0.3 μM, CHO-K1 cells expressing human SGLT2)	SMILES
41.8%	6.05	52.8%	7.58					COc1cc(O)c([C@@H]2O[C@H](CO)C(F)(F)[C@H](O)[C@H]2O)cc1Cc1ccc2c(c1)OCCO2 [Compound 54, (2S,3R,4R,6R)-2-[5-(2,3-dihydro-1,4-benzodioxin-6-ylmethyl)-2-hydroxy-4-methoxy-phenyl]-5,5-difluoro-6-(hydroxymethyl)tetrahydropyran-3,4-diol]
43.2%	6.76	77.6%	9.05					COc1cc(Cl)c(Cc2ccc(Cl)cc2)cc1[C@@H]1O[C@H](CO)C(F)(F)[C@H](O)[C@H]1O [Compound 168]
				38.0%	82.9%			OC[C@H]1O[C@@H](c2cc3c(c(Cc4ccc(C5CC5)cc4)c2)OCC3)[C@H](O)[C@@H](O)C1(F)F [Compound 174]
				25.4%	65.3%			COc1c([C@@H]2O[C@H](CO)C(F)(F)[C@H](O)[C@H]2O)cc(Cc2ccc(N(C)C)cc2)c2c1CCO2 [Compound 185]
				30.6%	75.0%			COc1cc(OC)c([C@@H]2O[C@H](CO)C(F)(F)[C@H](O)[C@H]2O)cc1Cc1ccc(C2CC2)cc1 [Compound 144]
79.5%	6.92	88.7%	8.11					CCc1ccc(Cc2cc([C@@H]3O[C@H](CO)C(F)(F)[C@H](O)[C@H]3O)c(O)cc2CC)cc1 [Compound 128]
				47.4%	65.9%			CCc1ccc(Cc2cc([C@@H]3O[C@H](CO)C(F)(F)[C@H](O)[C@H]3O)c(OC)c3c2OCC3)cc1 [Compound 38]
68.7%	6.86	90.9%	8.68					OC[C@H]1O[C@@H](c2cc(Cc3ccc(C4CC4)cc3)c(Cl)cc2O)[C@H](O)[C@@H](O)C1(F)F [Compound 136]
				72.3%	62.9%			OC[C@H]1O[C@@H](c2cc(Cc3ccc(OCF)cc3)c(C3CC3)cc2O)[C@H](O)[C@@H](O)C1(F)F [Compound 143]
				24.7%	73.2%			COc1c([C@@H]2O[C@H](CO)C(F)(F)[C@H](O)[C@H]2O)cc(Cc2ccc(OCF)cc2)c2c1CCO2 [Compound 184]
87.8%	7.46	87.6%	8.60					Cc1ccc(Cc2cc([C@@H]3O[C@H](CO)C(F)(F)[C@H](O)[C@H]3O)c(O)cc2Cl)s1 [Compound 161]
75.7%	7.70	83.4%	9.10					OC[C@H]1O[C@@H](c2cc(Cc3ccc(Cl)s3)c(Cl)cc2O)[C@H](O)[C@@H](O)C1(F)F [Compound 167]
48.1%	6.20	87.7%	8.33					CCc1cc(OC)c([C@@H]2O[C@H](CO)C(F)(F)[C@H](O)[C@H]2O)cc1Cc1ccc(OC)cc1 [Compound 89, (2S,3R,4R,6R)-2-[4-ethyl-2-methoxy-5-[(4-methoxyphenyl)methyl]phenyl]-5,5-difluoro-6-(hydroxymethyl)tetrahydropyran-3,4-diol]
75.5%	6.80	90.3%	9.00					Cc1cc(O)c([C@@H]2O[C@H](CO)C(F)(F)[C@H](O)[C@H]2O)cc1Cc1ccc(C2CC2)cc1 [Compound 124, (2S,3R,4R,6R)-2-(5-(4-cyclopropylbenzyl)-2-hydroxy-4-methylphenyl)-5,5-difluoro-6-(hydroxymethyl)-tetrahydro-2H-pyran-3,4-diol]
